{"source": "patent US20090018134A1", "about": "“Compounds - 945” (AstraZeneca AB, priority 2007, published 2009)", "molecular_target": "T1, mTOR (Homo sapiens, UniProt P42345)", "T1 construct": "FLAG; made in house", "T1 sequence (P42345 1362-2549)": "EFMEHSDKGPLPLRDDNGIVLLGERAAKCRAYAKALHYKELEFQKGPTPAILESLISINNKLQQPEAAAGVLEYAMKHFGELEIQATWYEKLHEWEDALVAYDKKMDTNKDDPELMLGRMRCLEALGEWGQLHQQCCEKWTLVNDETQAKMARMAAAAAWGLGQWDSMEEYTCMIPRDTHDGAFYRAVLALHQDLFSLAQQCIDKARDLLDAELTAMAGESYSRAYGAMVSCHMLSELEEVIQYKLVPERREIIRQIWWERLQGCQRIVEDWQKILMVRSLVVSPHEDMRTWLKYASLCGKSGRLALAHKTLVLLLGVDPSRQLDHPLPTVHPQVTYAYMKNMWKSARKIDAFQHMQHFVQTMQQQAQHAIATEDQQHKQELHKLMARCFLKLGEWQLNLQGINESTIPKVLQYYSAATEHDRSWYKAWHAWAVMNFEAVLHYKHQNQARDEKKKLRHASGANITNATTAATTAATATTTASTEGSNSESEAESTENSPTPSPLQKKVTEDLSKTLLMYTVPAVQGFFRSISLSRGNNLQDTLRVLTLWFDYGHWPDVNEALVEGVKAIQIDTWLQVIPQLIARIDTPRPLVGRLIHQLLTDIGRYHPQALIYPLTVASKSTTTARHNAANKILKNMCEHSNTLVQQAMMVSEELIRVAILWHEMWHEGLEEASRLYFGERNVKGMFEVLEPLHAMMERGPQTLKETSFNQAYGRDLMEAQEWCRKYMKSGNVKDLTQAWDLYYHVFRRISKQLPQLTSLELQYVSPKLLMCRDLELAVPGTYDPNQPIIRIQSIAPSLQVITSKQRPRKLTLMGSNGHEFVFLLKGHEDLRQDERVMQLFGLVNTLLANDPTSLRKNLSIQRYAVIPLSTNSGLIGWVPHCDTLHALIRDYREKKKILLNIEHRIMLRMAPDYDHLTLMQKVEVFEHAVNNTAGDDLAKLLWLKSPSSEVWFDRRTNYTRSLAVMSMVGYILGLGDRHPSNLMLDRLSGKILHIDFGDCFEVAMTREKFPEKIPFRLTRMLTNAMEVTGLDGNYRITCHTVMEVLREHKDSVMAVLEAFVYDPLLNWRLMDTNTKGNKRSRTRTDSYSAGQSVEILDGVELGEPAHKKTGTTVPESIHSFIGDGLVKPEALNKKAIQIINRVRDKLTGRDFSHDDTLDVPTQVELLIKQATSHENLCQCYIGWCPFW", "assay": "In Vitro mTOR Kinase Assay (Echo), Test (a)(ii)", "format": "biochemical", "text": "(a)(ii) In Vitro mTOR Kinase Assay (Echo)\nThe assay used AlphaScreen technology (Gray et al., Analytical Biochemistry, 2003, 313: 234-245) to determine the ability of test compounds to inhibit phosphorylation by recombinant mTOR.\nA C-terminal truncation of mTOR encompassing amino acid residues 1362 to 2549 of mTOR (EMBL Accession No. L34075) was stably expressed as a FLAG-tagged fusion in HEK293 cells as described by Vilella-Bach et al., […], 1999, 274, 4266-4272. The HEK293 FLAG-tagged mTOR (1362-2549) stable cell line was routinely maintained at 37° C. with 5% CO2 up to a confluency of 70-90% in Dulbecco's modified Eagle's growth medium (DMEM; Invitrogen Limited, Paisley, UK Catalogue No. 41966-029) containing 10% heat-inactivated foetal calf serum (FCS; Sigma, Poole, Dorset, UK, Catalogue No. F0392), 1% L-glutamine (Gibco, Catalogue No. 25030-024) and 2 mg/ml Geneticin (G418 sulfate; Invitrogen Limited, UK Catalogue No. 1013 1-027). Following expression in the mammalian HEK293 cell line, expressed protein was purified using the FLAG epitope tag using standard purification techniques.\nAliquots (120 nl […]) of each compound dilution were acoustically dispensed placed using a Labcyte Echo 550 into a well of a Greiner 384-well low volume (LV) white polystyrene plate (Greiner Bio-one).\nThese assay solutions were incubated for 2 hours at room temperature.\nEach reaction was stopped by the addition of […] of a mixture of EDTA (50 mM), bovine serum albumin (BSA; 0.5 mg/mL) and Tris-HCl pH 7.4 buffer (50 mM) containing p70 S6 Kinase (T389) 1A5 Monoclonal Antibody (Cell Signalling Technology, Catalogue No. 9206B) and AlphaScreen Streptavidin donor and Protein A acceptor beads (200 ng; Perkin Elmer, Catalogue No. 6760002B and 6760137R respectively) were added and the assay plates were left overnight at room temperature in the dark. The resultant signals arising from laser light excitation at 680 nm were read using a Packard Envision instrument.\nThe phosphorylated biotinylated peptide that is associated with AlphaScreen Streptavidin donor beads forms a complex with the p70 S6 Kinase (T389) 1A5 Monoclonal Antibody that is associated with Alphascreen Protein A acceptor beads. Upon laser light excitation at 680 nm, the donor bead: acceptor bead complex produces a signal that can be measured. Accordingly, the presence of mTOR kinase activity results in an assay signal. In the presence of an mTOR kinase inhibitor, signal strength is reduced.\nmTOR enzyme inhibition for a given test compound was expressed as an IC50 value.", "key": {"[1]": {"details": "table of enzyme assay Test (a)(ii), read-out: Test (a)(ii) IC50"}, "[2]": {"details": "read-out: mTOR Kinase Assay (Echo)"}}, "note": "Where two headings read alike, the source gives them in different places.", "data": [{"compound": "CC(C)(CO)NC(=O)Nc1ccc(-c2nc(N3CCOCC3)cc(C3(S(=O)(=O)C4CC4)CCC3)n2)cc1", "note": "[Example 13s, 1-[4-[4-(1-cyclopropylsulfonylcyclobutyl)-6-morpholin-4-ylpyrimidin-2-yl]phenyl]-3-(1-hydroxy-2-methylpropan-2-yl)urea]", "values": [{"measurement": "IC50", "setting": "[1]", "value": 8.46, "unit": "nM"}]}, {"compound": "C[C@H]1COCCN1c1cc(C2(S(=O)(=O)c3ccccc3C(F)(F)F)CC2)nc(-c2ccc(NC(=O)NCCO)cc2)n1", "note": "[Example 10g]", "values": [{"measurement": "IC50", "setting": "[2]", "value": 1.56, "unit": "nM"}]}, {"compound": "C[C@H]1COCCN1c1cc(C2(S(=O)(=O)CCCO)CC2)nc(-c2ccc(NC(=O)NC#N)cc2)n1", "note": "[Example 36co, 3-cyano-1-[4-[4-[1-(3-hydroxypropylsulfonyl)cyclopropyl]-6-[(3S)-3-methylmorpholin-4-yl]pyrimidin-2-yl]phenyl]urea]", "values": [{"measurement": "IC50", "setting": "[1]", "value": 1620, "unit": "nM"}]}, {"compound": "C[C@H]1COCCN1c1cc(C2(S(=O)(=O)CCCO)CC2)nc(-c2ccc(NC(=O)NCCO)cc2)n1", "note": "[Example 31f, 3-(2-hydroxyethyl)-1-[4-[4-[1-(3-hydroxypropylsulfonyl)cyclopropyl]-6-[(3S)-3-methylmorpholin-4-yl]pyrimidin-2-yl]phenyl]urea]", "values": [{"measurement": "IC50", "setting": "[1]", "value": 1.6, "unit": "nM"}]}, {"compound": "3-(3-hydroxypropyl)-1-[4-[4-[1-(3-hydroxypropylsulfonyl)cyclopro-pyl]-6-[(3S)-3-methylmorpholin-4-yl]pyrimidin-2-yl]phenyl]thiourea [Example 37f]", "values": [{"measurement": "IC50", "setting": "[1]", "value": 120, "unit": "nM"}]}, {"compound": "CNC(=O)Nc1ccc(-c2nc(N3CCOC[C@@H]3C)cc(C3(S(C)(=O)=O)CC3)n2)cc1F", "note": "[Example 52a, 1-[2-fluoro-4-[4-[(3S)-3-methylmorpholin-4-yl]-6-(1-methylsulfonylcyclopropyl)pyrimidin-2-yl]phenyl]-3-methylurea]", "values": [{"measurement": "IC50", "setting": "[1]", "value": 10.3, "unit": "nM"}]}, {"compound": "C[C@H]1COCCN1c1cc(C2(S(C)(=O)=O)CCC2)nc(-c2ccc(NC(=O)NC(C)(C)CO)cc2)n1", "note": "[Example 5f, 3-(1-hydroxy-2-methyl-propan-2-yl)-1-[4-[4-[(3S)-3-methylmorpholin-4-yl]-6-(1-methylsulfonylcyclobutyl)pyrimidin-2-yl]phenyl]urea]", "values": [{"measurement": "IC50", "setting": "[2]", "value": 7.36, "unit": "nM"}, {"measurement": "IC50", "setting": "[1]", "value": 4.85, "unit": "nM"}]}, {"compound": "C[C@H]1COC[C@H](C)N1c1cc(C2(S(C)(=O)=O)CC2)nc(-c2ccc(NC(=O)NC3CC3)cc2)n1", "note": "[Example 91, 3-Cyclopropyl-1-[4-[4-[(3S,5S)-3,5-dimethylmorpholin-4-yl]-6-(1-methylsulfonylyclopropyl)pyrimidin-2-yl]phenyl]urea]", "values": [{"measurement": "IC50", "setting": "[1]", "value": 4.98, "unit": "nM"}]}, {"compound": "Cc1csc(S(=O)(=O)C2(c3cc(N4CCOCC4)nc(-c4ccc(NC(=O)NC5CC5)cc4)n3)CC2)n1", "note": "[Example 42, 3-Cyclopropyl-1-[4-[4-[1-[(4-methyl-1,3-thiazol-2-yl)sulfonyl]cyclopropyl]-6-morpholin-4-ylpyrimidin-2-yl]phenyl]urea]", "values": [{"measurement": "IC50", "setting": "[1]", "value": 0.705, "unit": "nM"}]}, {"compound": "COc1ccc(NC(=O)Nc2ccc(-c3nc(N4CCOC[C@@H]4C)cc(C4(S(C)(=O)=O)CC4)n3)cc2)cc1", "note": "[Example 2t, 3-(4-methoxyphenyl)-1-[4-[4-[(3S)-3-methylmorpholin-4-yl]-6-(1-methylsulfonylcyclopropyl)pyrimidin-2-yl]phenyl]urea]", "values": [{"measurement": "IC50", "setting": "[2]", "value": 1.45, "unit": "nM"}, {"measurement": "IC50", "setting": "[1]", "value": 0.656, "unit": "nM"}]}, {"compound": "CS(=O)(=O)C1(c2cc(N3CCOCC3)nc(-c3ccc(NC(=O)NCCCO)cc3)n2)CCCC1", "note": "[Example 12o, 3-(3-hydroxypropyl)-1-[4-[4-(1-methylsulfonylcyclopentyl)-6-morpholin-4-ylpyrimidin-2-yl]phenyl]urea]", "values": [{"measurement": "IC50", "setting": "[2]", "value": 5.09, "unit": "nM"}]}, {"compound": "CC(CO)NC(=O)Nc1ccc(-c2nc(N3CCOC[C@@H]3C)cc(C3(S(C)(=O)=O)CC3)n2)cc1", "note": "(stereo partly drawn) [Example 2n, 3-(1-hydroxypropan-2-yl)-1-[4-[4-[(3S)-3-methylmorpholin-4-yl]-6-(1-methylsulfonylcyclopropyl)pyrimidin-2-yl]phenyl]urea]", "values": [{"measurement": "IC50", "setting": "[2]", "value": 8.44, "unit": "nM"}]}, {"compound": "C[C@H]1COCCN1c1cc(C2(S(=O)(=O)C3CCCCC3)CC2)nc(-c2ccc(NC(=O)NC3CCC3)cc2)n1", "note": "[Example 26a, 3-cyclobutyl-1-[4-[4-(1-cyclohexylsulfonylcyclopropyl)-6-[(3S)-3-methylmorpholin-4-yl]pyrimidin-2-yl]phenyl]urea]", "values": [{"measurement": "IC50", "setting": "[1]", "value": 6.72, "unit": "nM"}]}, {"compound": "C[C@H]1COCCN1c1cc(C2(S(=O)(=O)c3ccccc3F)CC2)nc(-c2ccc(NC(=O)Nc3cnn(C)c3)cc2)n1", "note": "[Example 58f, 1-[4-[4-[1-(2-fluorophenyl)sulfonylcyclopropyl]-6-[(3S)-3-methylmorpholin-4-yl]pyrimidin-2-yl]phenyl]-3-(1-methylpyrazol-4-yl)urea]", "values": [{"measurement": "IC50", "setting": "[1]", "value": 2.67, "unit": "nM"}]}, {"compound": "C[C@H]1COCCN1c1cc(C2(S(=O)(=O)c3ccccc3)CC2)nc(-c2ccc(NC(=O)Nc3ccn(C)n3)cc2)n1", "note": "[Example 36dv, 1-[4-[4-[1-(benzenesulfonyl)cyclopropyl]-6-[(3S)-3-methylmorpholin-4-yl]pyrimidin-2-yl]phenyl]-3-(1-methypyrazol-3-yl)urea]", "values": [{"measurement": "IC50", "setting": "[1]", "value": 4.3, "unit": "nM"}]}, {"compound": "C[C@H]1COCCN1c1cc(C2(S(=O)(=O)c3ccc(Cl)cc3)CC2)nc(-c2ccc(NC(=O)Nc3ccc(C(F)(F)F)cc3)cc2)n1", "note": "[Example 27j, 1-[4-[4-[1-(4-chlorophenyl)sulfonylcyclopropyl]-6-[(3S)-3-methylmorpholin-4-yl]pyrimidin-2-yl]phenyl]-3-[4-(trifluoromethyl)phenyl]urea]", "values": [{"measurement": "IC50", "setting": "[1]", "value": 7.61, "unit": "nM"}]}, {"compound": "CC(C)CNC(=O)Nc1ccc(-c2nc(N3CCOC[C@@H]3C)cc(C3(S(=O)(=O)c4ccncc4)CC3)n2)cc1", "note": "[Example 6b, 1-[4-[4-[(3S)-3-methylmorpholin-4-yl]-6-(1-pyridin-4-ylsulfonylcyclopropyl)pyrimidin-2-yl]phenyl]-3-(2-methylpropyl)urea]", "values": [{"measurement": "IC50", "setting": "[2]", "value": 6.12, "unit": "nM"}]}, {"compound": "C[C@H]1COCCN1c1cc(C2(S(=O)(=O)c3cccc(F)c3)CC2)nc(-c2ccc(NC(=O)NCC(F)F)cc2)n1", "note": "[Example 53d, 3-(2,2-difluoroethyl)-1-[4-[4-[1-(3-fluorophenyl)sulfonylcyclopro-pyl]-6-[(3S)-3-methylmorpholin-4-yl]pyrimidin-2-yl]phenyl]urea]", "values": [{"measurement": "IC50", "setting": "[1]", "value": 3.1, "unit": "nM"}]}, {"compound": "C[C@H]1COCCN1c1cc(C2(S(=O)(=O)c3ccc(OC(F)F)cc3)CC2)nc(-c2ccc(NC(=O)NCCO)cc2)n1", "note": "[Example 64c, 1-[4-[4-[1-[4-(difluoromethoxy)phenyl]sulfonyl-cyclopropyl]-6-[(3S)-3-methylmorpholin-4-yl]pyrimidin-2-yl]phenyl]-3-(2-hydroxyethyl)urea]", "values": [{"measurement": "IC50", "setting": "[1]", "value": 2.15, "unit": "nM"}]}, {"compound": "C[C@@H](CO)NC(=O)Nc1ccc(-c2nc(N3CCOC[C@@H]3C)cc(C3(S(=O)(=O)C4CC4)CCC3)n2)cc1", "note": "[Example 64x, 1-[4-[4-(1-cyclopropylsulfonylcyclobutyl)-6-[(3S)-3-methylmorpholin-4-yl]pyrimidin-2-yl]phenyl]-3-[(2S)-1-hydroxypropan-2-yl]urea]", "values": [{"measurement": "IC50", "setting": "[1]", "value": 7.61, "unit": "nM"}]}, {"compound": "C[C@H]1COCCN1c1cc(C2(S(=O)(=O)c3ccccc3)CCCC2)nc(-c2ccc(NC(=O)NCCO)cc2)n1", "note": "[Example 36bx, 1-[4-[4-[1-(benzenesulfonyl)cyclopentyl]-6-[(3S)-3-methylmorpholin-4-yl]pyrimidin-2-yl]phenyl]-3-(2-hydroxyethyl)urea]", "values": [{"measurement": "IC50", "setting": "[1]", "value": 2.69, "unit": "nM"}]}, {"compound": "Cc1nn(C(F)F)c(C)c1S(=O)(=O)C1(c2cc(N3CCOC[C@@H]3C)nc(-c3ccc(NC(=O)NCCF)cc3)n2)CC1", "note": "[Example 75e, 1-[4-[4-[1-[1-(difluoromethyl)-3,5-dimethylpyrazol-4-yl]sulfonylcyclopropyl]-6-[(3S)-3-methylmorpholin-4-yl]pyrimidin-2-yl]phenyl]-3-(2-fluoroethyl)urea]", "values": [{"measurement": "IC50", "setting": "[1]", "value": 37, "unit": "nM"}]}]}
